In experiment [1] the target is T1, HIV-1-Protease (Human immunodeficiency virus type 1 group M subtype B, UniProt P04585).
T1 construct: Gereinigte HIV-Protease wurde mit synthetischem Peptid
Briefly: HIV-specific protease enzyme assay (purified HIV protease, synthetic peptide substrate, RP-HPLC analysis of cleavage products). Format: biochemical. The settings on record: synthetic peptide imitating a Gag precursor cleavage site, 50% inhibition of protease activity. The source says:
Es wurde überraschend gefunden, daß die Verbindungen der allgemeinen Formel (I) eine außerordentlich starke Wirkung gegen Retroviren besitzen. Dies wird mit einem HIV-spezifischen Protease-Enzymtest belegt.
Die Ergebnisse der unten aufgeführten Beispiele wurden nach dem in den folgenden Literaturangaben [vgl. Hansen, J., Billich, S., Schulze, T., Sukrow, S. and Mölling, K. (1988), EMBO Journal, Vol, 7, No. 6, pp. 1785 - 1791] beschriebenen HIV-Testsystem ermittelt: Gereinigte HIV-Protease wurde mit synthetischem Peptid, das eine Schnittstelle im Gag-Precursor-Protein imitiert und eine in vivo-Spaltstelle der HIV-Protease darstellt, inkubiert. Die entstandenen Spaltprodukte des synthetischen Peptids wurden über Reverse Phase High Performance Liquid Chromatography (RP-HPLC) analysiert. Die angegebenen IC50-Werte beziehen sich auf die Substanzkonzentration, die unter den oben aufgeführten Testbedingungen eine 50%ige Hemmung der Protease-Aktivität bewirkt.

Experiment [2] has as its system HIV. Briefly: HIV infection in cell culture (PBL), suppression of virus-induced syncytia formation. Format: cell-based. Conditions: 50% suppression of virus-induced syncytia, read between day 3 and 6 after infection. As to the method: HIV-Infektion in Zellkultur
Der HIV-Test wurde mit geringen Modifikationen nach der Methode von Pauwels et al. [vgl. Journal of Virological Methods 20, (1988), 309-321] durchgeführt.
Normale menschliche Blutlymphozyten (PBL's) wurden über Ficoll-Hypaque angereichert und im RPMI 1640, 20% fötales Kälberserum mit Phytohaemagglutinin (90 µg/ml) und Interleukin-2 (40 U/ml) stimuliert. Zur Infektion mit dem in-fektiösen HIV wurden PBL's pelletiert und das Zellpellet wurde anschließend in 1 ml HIV-Virusadsorptionslösung suspendiert und 1 Stunde bei 37°C inkubiert.
Die Virusadsorptionslösung wurde zentrifugiert und das infizierte Zellpellet in Wachstumsmedium aufgenommen, so daß 1 x 10^5 Zellen pro ml eingestellt waren. Die derart infizierten Zellen wurden zu 1 x 10^4 Zellen/Napf in die Näpfe von 96er Mikrotiterplatten pipettiert.
Die erste vertikale Reihe der Mikrotiterplatte enthielt nur Wachstumsmedium und Zellen, die nicht infiziert, aber ansonsten genauso wie oben beschrieben, behandelt worden waren (Zellkontrolle). Die zweite vertikale Reihe der Mikrotiterplatte erhielt nur HIV-infizierte Zellen (Viruskontrolle) in Wachstumsmedium. Die übrigen Näpfe enthielten die erfindungsgemäßen Verbindungen in unterschiedlichen Konzentrationen, ausgehend von den Näpfen der 3. vertikalen Reihe der Mikrotiterplatte, von der die Prüfsubstanzen in 2er Schritten 2^10fach verdünnt wurden.
Die Testansätze wurden so lange bei 37°C inkubiert, bis in der unbehandelten Viruskontrolle die für das HIV typische Syncytienbildung auftrat (zwischen Tag 3 und 6 nach Infektion), die dann mikroskopisch ausgewertet wurde. In der unbehandelten Viruskontrolle resultierten unter diesen Testbedingungen etwa 20 Syncytien, währen die unbehandelte Zellkontrolle keine Syncytien aufwies.
Die IC50-Werte wurden als die Konzentration der behandelten und infizierten Zellen ermittelt, bei der 50% (ca. 10 Syncytien) der virusinduzierten Syncytien durch die Behandlung mit der erfindungsgemäßen Verbindung unterdrückt waren.

Experiment [3] deals with T1, HIV-1-Protease. Briefly: HIV-specific protease enzyme assay (purified HIV protease, synthetic peptide substrate, RP-HPLC analysis of cleavage products). The class given is biochemical. The settings on record: synthetic peptide imitating a Gag precursor cleavage site.
Setting [4] is: HIV-1-Protease-Inhibition IC50, purified HIV protease.
Setting [5] is: read-out: PBL IC50, HIV-infected normal human blood lymphocytes (PBL's).
The mark [6] stands for this setting: Human immunodeficiency virus 1, Lymphocyte, 72 h, read-out: PBL IC50, HIV-infected normal human blood lymphocytes (PBL's).
[7] abbreviates: purified HIV protease, read-out: HIV-1-Protease-Inhibition IC50.

Consider 14 compounds from patent publication EP0720988A1, “Pseudopeptides containing trifluoromethyl substituted 2-azabicyclooctane” (BAYER AG, priority 1995, dated 1996).

Structures can show the parent of a compound that is named as a salt. Where two headings read alike, the source gives them in different places.

As usually defined, the IC50 is the concentration that inhibits the measured activity by half. `NC(=O)C[C@H](NC(=O)c1cnc2ccccc2n1)C(=O)N[C@@H](Cc1ccccc1)[C@H](O)CN1[C@H](C(F)(F)F)C[C@@H]2CCC[C@@H]21` [Beispiel 1]: the results for the IC50 in experiment [1] (setting [4]) and in experiment [2] (setting [5]) were 0.018 nM and 81.7 nM, respectively. Also, the “HIV-1-Protease-Inhibition IC95” value in experiment [3] is given as 1,9 x 10^-10 Mol/l. For `NC(=O)C[C@H](NC(=O)c1cnc2ccccc2n1)C(=O)N[C@@H](Cc1ccccc1)[C@H](O)CN1[C@H](C(F)(F)F)C[C@@H]2CCC[C@@H]21` [Beispiel 2], the IC50 stood at 0.017 nM in experiment [1] (read-out: HIV-1-Protease-Inhibition IC50, purified HIV protease) and 38.5 nM in experiment [2] (setting [5]). Further, the “HIV-1-Protease-Inhibition IC95” value in experiment [3] was 3,6 x 10^-11 Mol/l.

For `NC(=O)C[C@H](NC(=O)c1ccc2ccccc2n1)C(=O)N[C@@H](Cc1ccccc1)[C@H](O)CN1[C@H](C(F)(F)F)C[C@@H]2CCC[C@@H]21` [Beispiel 3, (2R,3S)-3-(Chinolin-2-yl-L-asparaginyl)-amino-1-[(S,S,S)-3-trifluormethyl-2-azabicyclo[3.3.0]octan-2-yl}-2-hydroxy-4-phenyl-butan], the IC50 in experiment [1] (setting [4]) was 0.24 nM; in experiment [2] (setting [6]) it was 35 nM. In experiment [3], the “HIV-1-Protease-Inhibition IC95” value is 2,2 x 10^-8 Mol/l.

With `NC(=O)C[C@H](NC(=O)c1ccc2ccccc2n1)C(=O)N[C@@H](Cc1ccccc1)[C@H](O)CN1[C@H](C(F)(F)F)C[C@@H]2CCC[C@@H]21` [Beispiel 4, (2R,3S)-3-(Chinolin-2-yl-L-asparaginyl)-amino-1-[(S,S,S)-3-trifluormethyl-2-azabicylco[3.3.0]octan-2-yl}-2-hydroxy-4-phenyl-butan Hydrochlorid], the results for the IC50 in experiment [1] (setting [4]) and in experiment [2] (setting [5]) were 0.6 nM and 22.5 nM, respectively. Further, in experiment [3], the “HIV-1-Protease-Inhibition IC95” value is 3,3 x 10^-8 Mol/l. Consider `Cc1cc2ncc(C(=O)N[C@@H](CC(N)=O)C(=O)N[C@@H](Cc3ccccc3)[C@H](O)CN3[C@H](C(F)(F)F)C[C@@H]4CCC[C@@H]43)nc2cc1C` [Beispiel 8], for which, in experiment [3], the “HIV-1-Protease-Inhibition IC95” value was 3,2 x 10^-6 Mol/l. The same measure, in the same setting: to `Cc1cc2ncc(C(=O)N[C@@H](CC(N)=O)C(=O)N[C@@H](Cc3ccccc3)[C@H](O)CN3[C@H](C(F)(F)F)C[C@@H]4CCC[C@@H]43)nc2cc1C` [Beispiel 9] belongs 2,6 x 10^-9 Mol/l.

Take `Cc1ccc2nc(C(=O)N[C@@H](CC(N)=O)C(=O)N[C@@H](Cc3ccccc3)[C@H](O)CN3[C@H](C(F)(F)F)C[C@@H]4CCC[C@@H]43)ccc2c1` [Beispiel 10]: in experiment [3], the “HIV-1-Protease-Inhibition IC95” value is 3,1 x 10^-7 Mol/l. `Cc1ccc2nc(C(=O)N[C@@H](CC(N)=O)C(=O)N[C@@H](Cc3ccccc3)[C@H](O)CN3[C@H](C(F)(F)F)C[C@@H]4CCC[C@@H]43)ccc2c1` [Beispiel 11]: in experiment [3], the “HIV-1-Protease-Inhibition IC95” value was 3,6 x 10^-11 Mol/l. Consider `NC(=O)C[C@H](NC(=O)c1ccc2cc(Cl)ccc2n1)C(=O)N[C@@H](Cc1ccccc1)[C@H](O)CN1[C@H](C(F)(F)F)C[C@@H]2CCC[C@@H]21` [Beispiel 12], for which the “HIV-1-Protease-Inhibition IC95” value in experiment [3] is 3,7 x 10^-9 Mol/l. Take `NC(=O)C[C@H](NC(=O)c1ccc2cc(Cl)ccc2n1)C(=O)N[C@@H](Cc1ccccc1)[C@H](O)CN1[C@H](C(F)(F)F)C[C@@H]2CCC[C@@H]21` [Beispiel 13]: in experiment [3], the “HIV-1-Protease-Inhibition IC95” value is 2,5 x 10^-10 Mol/l. As to `NC(=O)C[C@H](NC(=O)COc1ccccc1-c1ccccc1)C(=O)N[C@@H](Cc1ccccc1)[C@H](O)CN1[C@H](C(F)(F)F)C[C@@H]2CCC[C@@H]21` [Beispiel 14], the IC50 in experiment [1] (setting [7]) is 3.5 nM; in experiment [2] (setting [6]) it was 600 nM. The “HIV-1-Protease-Inhibition IC95” value in experiment [3] is 1,8 x 10^-7 Mol/l. Turning to `NC(=O)C[C@H](NC(=O)COc1ccccc1-c1ccccc1)C(=O)N[C@@H](Cc1ccccc1)[C@H](O)CN1[C@H](C(F)(F)F)C[C@@H]2CCC[C@@H]21` [Beispiel 15], the IC50 in experiment [1] (setting [7]) came out at 2.2 nM. Further, in experiment [3], the “HIV-1-Protease-Inhibition IC95” value is recorded as 2,9 x 10^-8 Mol/l. The corresponding values for `Cc1c(O)cccc1C(=O)N[C@@H](CC(N)=O)C(=O)N[C@@H](Cc1ccccc1)[C@H](O)CN1[C@H](C(F)(F)F)C[C@@H]2CCC[C@@H]21` [Beispiel 16] are 200 nM and 2,7 x 10^-6 Mol/l. On to `Cc1cnc(C)c(COC(=O)N[C@@H](CC(N)=O)C(=O)N[C@@H](Cc2ccccc2)[C@H](O)CN2[C@H](C(F)(F)F)C[C@@H]3CCC[C@@H]32)c1` [Beispiel 17], for which the IC50 in experiment [1] (setting [7]) worked out at 1900 nM. Further, the “HIV-1-Protease-Inhibition IC95” value in experiment [3] was 3,7 x 10^-5 Mol/l.
